Results taken from the CheMixHub ionic liquid set.

Experiment: xn = mol fraction of the nth substance listed

CC[C@H](C)[C@H](N)C(=O)O + CC[n+]1ccn(C)c1.O=S(=O)([O-])O + O
viscosity [mPa·s], 100 kPa
Conditions | x1 = 0.0003801, x2 = 0 | x1 = 0.0007797, x2 = 0 | x1 = 0.00113, x2 = 0 | x1 = 0.001526, x2 = 0 | x1 = 0.001761, x2 = 0 | x1 = 0.002228, x2 = 0 | x1 = 0.002748, x2 = 0
293.15 K | 1.024 | 1.046 | 1.066 | 1.088 | 1.101 | 1.127 | 1.156
298.15 K | 0.902 | 0.913 | 0.923 | 0.934 | 0.94 | 0.953 | 0.968
303.15 K | 0.807 | 0.817 | 0.826 | 0.836 | 0.843 | 0.855 | 0.868
308.15 K | 0.729 | 0.739 | 0.748 | 0.757 | 0.763 | 0.775 | 0.787
313.15 K | 0.661 | 0.671 | 0.679 | 0.688 | 0.693 | 0.704 | 0.716

Cc1ncc(C[n+]2csc(CCO)c2C)c(N)n1.Cl.[Cl-] + CC[n+]1ccn(C)c1.O=S(=O)([O-])O + O
viscosity [mPa·s], 100 kPa
Conditions | x1 = 0.0002695, x2 = 0 | x1 = 0.0005398, x2 = 0 | x1 = 0.0008099, x2 = 0 | x1 = 0.00108, x2 = 0 | x1 = 0.00135, x2 = 0 | x1 = 0.00162, x2 = 0 | x1 = 0.001889, x2 = 0
293.15 K | 1.01 | 1.02 | 1.03 | 1.03 | 1.04 | 1.05 | 1.06
298.15 K | 0.9 | 0.91 | 0.92 | 0.93 | 0.93 | 0.94 | 0.95
303.15 K | 0.81 | 0.81 | 0.82 | 0.83 | 0.84 | 0.85 | 0.86
308.15 K | 0.73 | 0.73 | 0.74 | 0.75 | 0.76 | 0.76 | 0.77
313.15 K | 0.66 | 0.67 | 0.68 | 0.68 | 0.69 | 0.7 | 0.71
318.15 K | 0.61 | 0.61 | 0.62 | 0.63 | 0.64 | 0.64 | 0.65

O=C1O[C@H]([C@@H](O)CO)C(O)=C1O + CC[n+]1ccn(C)c1.O=S(=O)([O-])O + O
viscosity [mPa·s], 100 kPa
Conditions | x1 = 0.0002709, x2 = 0 | x1 = 0.0005412, x2 = 0 | x1 = 0.0008101, x2 = 0 | x1 = 0.001079, x2 = 0 | x1 = 0.001351, x2 = 0 | x1 = 0.001618, x2 = 0 | x1 = 0.00189, x2 = 0
293.15 K | 1.01 | 1.01 | 1.02 | 1.02 | 1.03 | 1.03 | 1.04
298.15 K | 0.9 | 0.9 | 0.91 | 0.91 | 0.92 | 0.92 | 0.93
303.15 K | 0.8 | 0.81 | 0.81 | 0.82 | 0.82 | 0.83 | 0.84
308.15 K | 0.72 | 0.73 | 0.73 | 0.74 | 0.74 | 0.75 | 0.76
313.15 K | 0.66 | 0.66 | 0.67 | 0.67 | 0.68 | 0.68 | 0.69
318.15 K | 0.61 | 0.61 | 0.62 | 0.62 | 0.63 | 0.63 | 0.64

CCn1cc[n+](C)c1.[Cl][Al-]([Cl])([Cl])[Cl+][Al-]([Cl])([Cl])[Cl] + CC[n+]1ccn(C)c1.[Cl][Al-]([Cl])([Cl])[Cl]
100 kPa, x1 = 1
Conditions | viscosity [mPa·s]
313.15 K | 9.79
323.15 K | 7.943
343.15 K | 5.526
353.15 K | 4.721

COC(=O)OC + CC[n+]1ccn(C)c1C.O=S(=O)([N-]S(=O)(=O)C(F)(F)F)C(F)(F)F
101.3 kPa, x2 = 0
Conditions | viscosity [mPa·s]
288.15 K | 0.668
293.15 K | 0.628
298.15 K | 0.588
303.15 K | 0.553
308.15 K | 0.524
313.15 K | 0.498

CC[n+]1ccn(C)c1.[Cl][Al-]([Cl])([Cl])[Cl] + CCn1cc[n+](C)c1.[Cl][Al-]([Cl])([Cl])[Cl+][Al-]([Cl])([Cl])[Cl]
100 kPa
Conditions | viscosity [mPa·s]
293.15 K, x2 = 0.2046 | 19.38
303.15 K, x2 = 0 | 15.69
303.15 K, x2 = 0.3035 | 14.44
303.15 K, x2 = 0.5041 | 13.77
303.15 K, x2 = 0.6955 | 13.21
323.15 K, x2 = 0.4003 | 9.033
323.15 K, x2 = 0.5962 | 8.65
323.15 K, x2 = 0.6955 | 8.468
323.15 K, x2 = 0.7963 | 8.286
333.15 K, x2 = 0.1016 | 8.016
333.15 K, x2 = 0.2046 | 7.821
333.15 K, x2 = 0.8901 | 6.726
343.15 K, x2 = 0.5962 | 6.037
343.15 K, x2 = 0.6955 | 5.906
353.15 K, x2 = 0.1016 | 5.806

CCCCCCCCn1cc[n+](C)c1.N#C[S-] + CN1CCCC1=O
viscosity [mPa·s], 101 kPa
Conditions | x1 = 0.0008419 | x1 = 0.001327 | x1 = 0.002048 | x1 = 0.002709 | x1 = 0.003576 | x1 = 0.004058 | x1 = 0.004657 | x1 = 0.005393
288.15 K | 2.152 | 2.16 | 2.177 | 2.191 | 2.199 | 2.204 | 2.213 | 2.229
298.15 K | 1.809 | 1.817 | 1.827 | 1.834 | 1.846 | 1.857 | 1.865 | 1.872
308.15 K | 1.572 | 1.58 | 1.591 | 1.599 | 1.61 | 1.621 | 1.631 | 1.641
318.15 K | 1.354 | 1.37 | 1.393 | 1.407 | 1.417 | 1.434 | 1.447 | 1.458

CCCCCCCCn1cc[n+](C)c1.[Cl-] + CN1CCCC1=O
100 kPa
Conditions | viscosity [mPa·s]
293.15 K, x2 = 0.3221 | 787
298.15 K, x2 = 0.3221 | 541
308.15 K, x2 = 0.7195 | 14.86
308.15 K, x2 = 0.9085 | 3.35
318.15 K, x2 = 0.21 | 324
318.15 K, x2 = 0.5321 | 43.3
318.15 K, x2 = 0.8143 | 5.54
323.15 K, x2 = 0.21 | 244
323.15 K, x2 = 0.8143 | 4.96
328.15 K, x2 = 0.21 | 185

CCCCCC[n+]1ccn(C)c1.N#C[S-] + CN1CCCC1=O
viscosity [mPa·s], 101 kPa
Conditions | x1 = 0.001079 | x1 = 0.001613 | x1 = 0.002068 | x1 = 0.00265 | x1 = 0.003379 | x1 = 0.004077 | x1 = 0.004588 | x1 = 0.005383
288.15 K | 2.143 | 2.148 | 2.155 | 2.162 | 2.168 | 2.173 | 2.182 | 2.186
298.15 K | 1.805 | 1.809 | 1.82 | 1.826 | 1.833 | 1.841 | 1.847 | 1.854
308.15 K | 1.567 | 1.576 | 1.585 | 1.593 | 1.6 | 1.613 | 1.619 | 1.624
318.15 K | 1.337 | 1.35 | 1.357 | 1.37 | 1.38 | 1.389 | 1.397 | 1.402

CCCCCC(=O)[O-].C[NH2+]Cc1ccccc1 + CN(C)C=O
viscosity [mPa·s], 101 kPa
Conditions | 293.15 K | 298.15 K | 303.15 K | 308.15 K | 313.15 K | 318.15 K | 323.15 K | 328.15 K
x1 = 0.004888 | 0.957 | 0.916 | 0.879 | 0.846 | 0.817 | 0.791 | 0.767 | 0.746
x1 = 0.008422 | 0.969 | 0.926 | 0.887 | 0.854 | 0.824 | 0.797 | 0.772 | 0.75
x1 = 0.0141 | 0.992 | 0.946 | 0.905 | 0.869 | 0.837 | 0.809 | 0.784 | 0.76
x1 = 0.01792 | 1.009 | 0.961 | 0.918 | 0.881 | 0.847 | 0.818 | 0.791 | 0.767
x1 = 0.02131 | 1.026 | 0.975 | 0.93 | 0.891 | 0.857 | 0.826 | 0.798 | 0.773
x1 = 0.02717 | 1.052 | 0.998 | 0.95 | 0.909 | 0.873 | 0.84 | 0.812 | 0.786
x1 = 0.03049 | 1.072 | 1.016 | 0.966 | 0.923 | 0.884 | 0.85 | 0.82 | 0.793
x1 = 0.03458 | 1.099 | 1.038 | 0.985 | 0.94 | 0.899 | 0.863 | 0.831 | 0.803

CCCCCCCCn1cc[n+](C)c1.N#C[S-] + CN(C)C=O
viscosity [mPa·s], 101 kPa
Conditions | 293.15 K | 303.15 K | 313.15 K | 323.15 K | 333.15 K | 343.15 K | 353.15 K | 363.15 K
x1 = 0.004576 | 0.987 | 0.872 | 0.784 | 0.707 | 0.65 | 0.595 | 0.544 | 0.504
x1 = 0.007767 | 1.007 | 0.891 | 0.799 | 0.722 | 0.658 | 0.604 | 0.558 | 0.515
x1 = 0.01461 | 1.065 | 0.948 | 0.868 | 0.779 | 0.705 | 0.642 | 0.591 | 0.543
x1 = 0.02142 | 1.136 | 0.994 | 0.912 | 0.814 | 0.728 | 0.673 | 0.617 | 0.563
x1 = 0.02908 | 1.219 | 1.057 | 0.956 | 0.848 | 0.764 | 0.713 | 0.648 | 0.598
x1 = 0.03577 | 1.297 | 1.134 | 1.013 | 0.897 | 0.808 | 0.738 | 0.672 | 0.618

CCCCCCCCn1cc[n+](C)c1.[Cl-] + CO
101 kPa
Conditions | viscosity [mPa·s]
298.15 K, x1 = 0.0197 | 0.729
298.15 K, x2 = 0.3525 | 530
298.15 K, x2 = 0.4395 | 237
298.15 K, x2 = 0.5589 | 64.1
298.15 K, x2 = 0.8713 | 2.39
298.15 K, x2 = 0.8813 | 2.205
313.15 K, x2 = 0.5589 | 34.97
313.15 K, x2 = 0.8231 | 3.58
328.15 K, x2 = 0.4395 | 55.2
328.15 K, x2 = 0.8231 | 2.496

CCCC[n+]1ccc(C)cc1.F[B-](F)(F)F + CO
101 kPa
Conditions | viscosity [mPa·s]
298.15 K, x2 = 0 | 196
298.15 K, x2 = 0.4287 | 19.3
298.15 K, x2 = 0.5246 | 11.58
298.15 K, x2 = 0.9671 | 0.729
313.15 K, x2 = 0.4287 | 11.94
313.15 K, x2 = 0.718 | 2.98
313.15 K, x2 = 0.8803 | 1.13
323.15 K, x1 = 0.01507 | 0.447
323.15 K, x2 = 0.8313 | 1.31
323.15 K, x2 = 0.8803 | 0.972

CC[n+]1ccn(C)c1.N#C[S-] + CO
100 kPa
Conditions | electrical conductivity [S/m] | viscosity [mPa·s]
298.15 K, x1 = 0.5972 | 2.07 | 12.8
303.15 K, x1 = 0.3859 | 2.58 | 7
303.15 K, x1 = 1 | – | 20
308.15 K, x1 = 0.0988 | 2.57 | 1.9
308.15 K, x1 = 0.5006 | 2.65 | 7.9
308.15 K, x1 = 1 | 2.27 | 18
323.15 K, x1 = 0.1966 | – | 2.2
323.15 K, x1 = 0.3005 | 3.7 | 3.2
323.15 K, x1 = 0.804 | 3.13 | 9.1
323.15 K, x1 = 0.8997 | 3.08 | 10.4
323.15 K, x1 = 1 | 3.05 | 12

C[N+](C)(C)CCC[N+]1(C)CCCCC1.N#C[N-]C#N.N#C[N-]C#N + CO
100 kPa
Conditions | viscosity [mPa·s]
293.15 K, x1 = 0.5002 | 271
293.15 K, x1 = 0.6001 | 585
303.15 K, x1 = 0.2001 | 11.3
303.15 K, x1 = 0.3002 | 28.5
303.15 K, x1 = 0.5002 | 160
323.15 K, x1 = 0.0999 | 2.73
323.15 K, x1 = 0.3002 | 15.7
333.15 K, x1 = 0.3999 | 24.9
